From ChEMBL document CHEMBL3039007, “Structure-based identification of OATP1B1/3 inhibitors” (Mol Pharmacol, 2013)
Starred links: 1 amine or outer side, 2 acyl side, 3 side chain; linkers in the order of their positions; H or OH if unused. Positions of bridges follow the written chain, without caps; N, C: chain ends. Non-standard residues stand in square brackets, D forms with d. Residues, ends and D or L forms follow the SMILES beside them. Chains are numbered I, II in the order given. Actinocin(9to1) = Cc1c2oc3c(C)ccc(C(=O)[*:1])c3nc-2c(C(=O)[*:2])c(N)c1=O; NMeV = CN[C@H](C(=O)O)C(C)C; Sar = CNCC(=O)O

Experiments:
[1] = target: T1, Solute carrier organic anion transporter family member 1B1 (Homo sapiens, UniProt Q9Y6L6); conditions: chinese hamster, cho, 10 µM
T1 sequence (Q9Y6L6 whole entry): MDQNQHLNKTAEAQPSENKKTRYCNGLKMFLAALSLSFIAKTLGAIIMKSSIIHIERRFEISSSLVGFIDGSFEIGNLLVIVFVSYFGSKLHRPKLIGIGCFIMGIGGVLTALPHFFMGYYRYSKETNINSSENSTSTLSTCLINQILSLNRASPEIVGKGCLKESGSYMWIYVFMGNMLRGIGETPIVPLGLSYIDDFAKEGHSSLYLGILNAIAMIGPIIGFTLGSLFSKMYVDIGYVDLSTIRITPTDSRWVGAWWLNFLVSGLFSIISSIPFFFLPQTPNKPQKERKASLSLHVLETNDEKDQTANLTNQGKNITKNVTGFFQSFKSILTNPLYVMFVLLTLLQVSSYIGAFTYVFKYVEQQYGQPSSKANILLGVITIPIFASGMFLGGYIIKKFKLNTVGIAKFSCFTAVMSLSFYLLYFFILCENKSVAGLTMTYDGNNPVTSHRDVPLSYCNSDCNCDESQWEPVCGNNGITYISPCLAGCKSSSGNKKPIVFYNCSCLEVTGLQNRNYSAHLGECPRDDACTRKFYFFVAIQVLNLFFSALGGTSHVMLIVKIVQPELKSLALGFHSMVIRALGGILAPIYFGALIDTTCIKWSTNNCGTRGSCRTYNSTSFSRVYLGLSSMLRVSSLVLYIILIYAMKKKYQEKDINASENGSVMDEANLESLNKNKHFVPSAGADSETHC

[2] = target: T2, Solute carrier organic anion transporter family member 1B3 (Homo sapiens, UniProt Q9NPD5); conditions: chinese hamster, cho, 10 µM
T2 sequence (Q9NPD5 whole entry): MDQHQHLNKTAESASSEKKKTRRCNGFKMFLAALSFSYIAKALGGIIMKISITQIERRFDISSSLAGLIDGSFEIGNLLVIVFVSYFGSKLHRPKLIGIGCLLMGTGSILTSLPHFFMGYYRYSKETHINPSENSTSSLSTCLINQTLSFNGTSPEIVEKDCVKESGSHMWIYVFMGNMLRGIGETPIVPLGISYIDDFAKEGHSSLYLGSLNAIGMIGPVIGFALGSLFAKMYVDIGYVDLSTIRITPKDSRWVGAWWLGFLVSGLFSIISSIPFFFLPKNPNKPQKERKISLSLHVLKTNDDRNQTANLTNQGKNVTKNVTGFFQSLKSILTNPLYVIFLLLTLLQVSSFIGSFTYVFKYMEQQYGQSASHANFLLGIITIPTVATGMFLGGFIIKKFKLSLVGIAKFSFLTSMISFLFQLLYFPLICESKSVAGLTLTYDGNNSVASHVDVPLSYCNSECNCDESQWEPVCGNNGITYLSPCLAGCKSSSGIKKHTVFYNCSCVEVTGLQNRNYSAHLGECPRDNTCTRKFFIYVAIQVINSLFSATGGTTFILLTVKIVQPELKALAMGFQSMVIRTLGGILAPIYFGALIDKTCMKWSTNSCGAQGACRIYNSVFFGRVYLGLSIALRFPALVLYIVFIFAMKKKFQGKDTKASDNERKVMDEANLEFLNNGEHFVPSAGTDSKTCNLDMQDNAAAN

| Compound | residual activity [1] [%] | residual activity [2] [%] |
| --- | --- | --- |
| CC(=O)O[C@@H]1C=C[C@]2(C)C(C[C@@H](OC(C)=O)[C@]3(C)C4=CC(=O)O[C@H](c5ccoc5)[C@@]4(C)CCC23)C1(C)C (stereo partly drawn) [DEOXYGEDUNOL ACETATE] | 23.25 | 49.18 |
| COc1c(C(C)C)oc2cc3oc(=O)ccc3cc12 [PEUCEDANIN] | 101.3 | 105.2 |
| NC(Cc1c[nH]cn1)C(=O)Nc1ccc2ccccc2c1 (stereo not drawn) | 89.48 | 105.8 |
| CCCc1occc(=O)c1/C=C/O [2-PROPYL-3-HYDROXYETHYLENEPYRAN-4-ONE] | 128.5 | 129.3 |
| Oc1cc(O)c2c(c1)O[C@H](c1cc(O)c(O)c(O)c1)[C@H](O)C2 [EPIGALLOCATECHIN] | 101.7 | 96.72 |
| CS(=O)(=O)[O-].C[n+]1ccccc1C=NO [PRALIDOXIME MESYLATE] | 73.31 | 98.72 |
| CCOc1ccc2c(c1)C(C)=CC(C)(C)N2 [E324] | 108.3 | 119.7 |
| CC(C)OC(=O)C(C)(C)Oc1ccc(C(=O)c2ccc(Cl)cc2)cc1 [FENOFIBRATE] | 82.56 | 90.21 |
| O=c1cccc2n1C[C@@H]1CNC[C@H]2C1 [CYTISINICLINE] | 99.71 | 106.2 |
| OCc1c[nH]c2ccccc12 [INDOLE-3-CARBINOL] | 88.32 | 121.9 |
| C=C1C2CC[C@H]3[C@]4(C)C[C@H](O[C@H]5O[C@H](CO)[C@@H](OS(=O)(=O)[O-])[C@H](OS(=O)(=O)[O-])[C@H]5OC(=O)CC(C)C)C[C@@H](C(=O)O)[C@H]4CC[C@]3(C2)[C@H]1O.[K+].[K+] | 100 | 92.24 |
| COc1cc(N)c(Cl)cc1C(=O)NC1CCN(Cc2ccccc2)CC1.O=C(O)/C=C\C(=O)O [CLEBOPRIDE MALEATE] | 84.15 | 124.4 |
| CCn1cc(C(=O)O)c(=O)c2cc(F)c(N3CCN(C)CC3)cc21.CS(=O)(=O)O [PEFLOXACIN MESYLATE] | 123.1 | 95.74 |
| COc1cc(O)c(C)c(O)c1 [2,6-DIHYDROXY-4-METHOXYTOLUENE] | 108.8 | 91.69 |
| COc1ccc([C@@H]2CC(=O)c3c(O)cc(O[C@@H]4O[C@H](CO[C@@H]5O[C@@H](C)[C@H](O)[C@@H](O)[C@H]5O)[C@@H](O)[C@H](O)[C@H]4O)cc3O2)cc1O [HESPERIDIN] | 106.1 | 110.2 |
| COc1cc([C@@H]2c3cc4c(cc3[C@@H](O[C@@H]3O[C@@H]5CO[C@@H](c6cccs6)O[C@H]5[C@H](O)[C@H]3O)[C@H]3COC(=O)[C@H]23)OCO4)cc(OC)c1O [TENIPOSIDE] | 25.44 | 32.58 |
| COc1c(O)cc2c(-c3ccccc3)cc(=O)oc2c1OC [KUHLMANNIN] | 128.2 | 118.4 |
| CCC1(c2ccccc2)C(=O)NCNC1=O [PRIMIDONE] | 78.09 | 90.17 |
| COc1ccc2cc3[n+](cc2c1OC)CCc1cc2c(cc1-3)OCO2.[Cl-] [BERBERINE CHLORIDE] | 110.4 | 108.4 |
| COC1=CC(=O)C(O)=C/C1=C\C=C\c1ccccc1 [OBTUSAQUINONE] | 60.32 | 88.38 |
| CC(=O)OC1CCC23CC1(C)CCC2C(C)(C)CC3OC(C)=O (stereo not drawn) [CLOVANEDIOL DIACETATE] | 109.5 | 85.3 |
| COc1cc(O)c(C(=O)c2ccccc2)cc1O [CEAROIN] | 91.48 | 120.9 |

| Compound | residual activity [1] [%] | residual activity [2] [%] |
| --- | --- | --- |
| N=C1C=CC(=C(c2ccc(N)cc2)c2ccc(N)cc2)C=C1.N=C1C=CC(=C(c2ccc(N)cc2)c2ccc(N)cc2)C=C1.O.O.O=C(O)c1cc2ccccc2c(Cc2c(O)c(C(=O)O)cc3ccccc23)c1O [PARAROSANILINE PAMOATE] | 66.86 | 144.5 |
| Cc1cc(O)cc(O)c1C(=O)O [ORSELLINIC ACID] | 66.07 | 86.96 |
| Cc1cc(OC(=O)c2c(C)cc(O)cc2O)cc(O)c1C(=O)O [LECANORIC ACID] | 61.21 | 60.79 |
| COC(=O)C[C@H]1C(C)(C)C(=O)[C@@H]2CC3=C4CC(=O)O[C@@H](c5ccoc5)[C@]4(C)CC[C@@H]3[C@@]1(C)C2=O [MEXICANOLIDE] | 44.09 | 122.7 |
| COC1=C[C@@H]2[C@@H]3Cc4ccc(OC)c(O)c4[C@]2(CCN3C)CC1=O [SINOMENINE] | 105.5 | 68.46 |
| O=C(CC(=O)c1ccccc1)c1ccccc1 [DIBENZOYLMETHANE] | 129.7 | 118.4 |
| COc1ccc([C@@H]2Sc3ccccc3N(CCN(C)C)C(=O)[C@@H]2OC(C)=O)cc1.Cl [DILTIAZEM HYDROCHLORIDE] | 26.71 | 80.81 |
| c1ccc2c3c([nH]c2c1)CNCC3 [TRYPTOLINE] | 99.4 | 98.72 |
| COC(=O)N/N=C/c1c[n+]([O-])c2ccccc2[n+]1[O-] [CARBADOX] | 84.43 | 107.6 |
| CC(=O)NC(Cc1ccccc1)C(=O)O (stereo not drawn) [AFALANINE] | 114.2 | 112.5 |
| CN1[C@@H]2CC[C@H]1C[C@@H](OC(c1ccccc1)c1ccccc1N)C2 (stereo partly drawn) [AMINOBENZTROPINE] | 75.33 | 77.23 |
| COc1ccc2c(c1)c(CC(=O)O)c(C)n2C(=O)c1ccc(Cl)cc1 [INDOMETHACIN] | 97.38 | 50.32 |
| CCOC(=O)c1ccc(N)cc1 [BENZOCAINE] | 129.5 | 100.6 |
| Cc1c2oc3c(C)ccc(C(=O)N[C@@H]4C(=O)N[C@H](C(C)C)C(=O)N5CCC[C@H]5C(=O)N(C)CC(=O)N(C)[C@@H](C(C)C)C(=O)O[C@@H]4C)c3nc-2c(C(=O)N[C@@H]2C(=O)N[C@H](C(C)C)C(=O)N3CCC[C@H]3C(=O)N(C)CC(=O)N(C)[C@@H](C(C)C)C(=O)O[C@@H]2C)c(N)c1=O [DACTINOMYCIN] (I: T[dV]P[Sar][NMeV] / II: T[dV]P[Sar][NMeV]; ester I:1-I:C, II:1-II:C; linker I:N-II:N via Actinocin(9to1)) | 57.98 | 85.16 |
| Clc1ccc(CO/N=C(\Cn2ccnc2)c2ccc(Cl)cc2Cl)c(Cl)c1.O=[N+]([O-])O [OXICONAZOLE NITRATE] | 116 | 122.3 |
| COc1ccc2c(c1)OC/C(=C/c1ccc(O)c(O)c1)C2=O [SAPPANONE A 7-METHYL ETHER] | 159.5 | 107.8 |
| Cl.NCC(O)c1ccc(O)cc1 (stereo not drawn) [OCTOPAMINE HYDROCHLORIDE] | 89.25 | 96.06 |
| COC(=O)C(C)c1ccc(C(=O)c2cccs2)cc1 (stereo not drawn) [SUPROFEN METHYL ESTER] | 93.7 | 95.34 |
| COC1=C(O)C(=O)c2c(cc3oc(C(C)=O)c(O)c3c2O)C1=O [RHODOCLADONIC ACID] | 93.89 | 96.54 |
| CC(=O)OCC(=O)[C@@]1(O)CC[C@H]2[C@@H]3CCC4=CC(=O)CC[C@]4(C)[C@H]3C(=O)C[C@@]21C [CORTISONE ACETATE] | 103.3 | 98.8 |
| Cc1c(Cl)cccc1Nc1ccccc1C(=O)O [TOLFENAMIC ACID] | 95.07 | 77.01 |
| COc1ccc2c(c1OC)C(=O)O[C@H]2[C@H]1c2cc3c(cc2CCN1C)OCO3 [1R,9S-HYDRASTINE] | 94.94 | 84.49 |
